Among the data in PMC2229473 (The Journal of General Physiology, 1999) are Ki values, retold here.

Assay [1] addresses T1, KcsA K^+ channel (Streptomyces lividans, UniProt P0A334).
T1 sequence (P0A334 1-160): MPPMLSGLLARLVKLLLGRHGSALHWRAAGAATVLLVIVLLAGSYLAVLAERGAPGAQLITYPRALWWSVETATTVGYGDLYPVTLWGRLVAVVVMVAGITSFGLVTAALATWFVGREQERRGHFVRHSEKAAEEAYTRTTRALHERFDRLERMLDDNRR
Briefly: single-channel recording in planar lipid bilayer, block of open-channel current. The format is biochemical.

Assay [2] deals with T2, KcsA K^+ channel (Streptomyces lividans, UniProt P0A334, Y82C).
T2 sequence (P0A334 1-160 Y82C): T1 sequence (P0A334 1-160)
The assay is described as above. The format is biochemical.

Broadly, the Ki is a measure of affinity in units of concentration, obtained from inhibition or displacement. In the case of `CC[N+](CC)(CC)CC` [TEA, tetraethylammonium], the Ki in assay [1] is 3.2 mM; in assay [2] it was 23 mM.
